From patent US20040062764A1, “Chemoprotectant for gastric toxicity” (priority 2003, published 2004)
Converted amounts (≈) assume the structure as drawn. “Also recorded” adds a separate entry of the source. Like-named read-outs stand apart in the source and are kept apart here.

Key:
[1] = test system: human gastric carcinoma cell line (AGS); assay: Cytotoxicity dose response in gastric carcinoma cells; conditions: for cell survival, comparison of combinations (FIGS. 5 and 6): NAC+BSO+BR96-DOX versus BR96-DOX+BSO without NAC; for EC50: Homo sapiens, AGS
Protocol: (§1) A NHGC cell line and a human gastric carcinoma cell line (AGS) were obtained.
The dose response curves for BR96-DOX and doxorubicin with or without the addition of buthionine sulfoximine (BSO) at a concentration of 100 μM were assessed.

[2] = test system: low-expressor and high-expressor subclones of the LX-1 SCLC cell line; assay: BSO cytoenhancement in LX-1 SCLC subclones; type: cell-based, human; conditions: low- and high-expressor LX-1 subclones
[3] = test system: normal human gastric cells (NHGC); conditions: for percent viable gastric cells, BR96-DOX plus chemoprotectant (FIGS. 3 and 4): with or without BSO pretreatment
Protocol: Cytotoxicity was assessed in cultured normal human gastric cells (NHGC), using the WST colorometric assay for live cells. Cells were treated with approximately LD90 dose of BR96-DOX, immediately followed by NAC at the indicated concentrations.
as §1

bone marrow = assay: Bone marrow toxicity study after intra-carotid combination chemotherapy
Protocol: (§2) NAC biodistribution was determined with radiolabelled tracer (n=12). Blood and tissue GSH levels were measured with a colorometric kit 9 (n=19). For bone marrow toxicity studies, rats were treated with or without BSO (10 g/m^2 i.p. b.i.d.×3 days), followed by chemotherapy consisting of intra-carotid carboplatin (200 mg/m^2), melphalan (10 mg/m^2) and etoposide phosphate (100 mg/m^2) (n=61). The dose of NAC was 1200 mg/m^2 and STS was 8 gm/m^2. White blood cell and platelet counts were obtained prior to, at 6 days and 9-10 days after chemotherapy.

GSH = assay: Blood and tissue GSH levels, colorometric kit; type: in vivo, nude rats; conditions: BSO 10 g/m^2 i.p. b.i.d. x 3 days; even in brain and intracerebral tumor
Protocol: as §2

B.5 LX-1 SCLC cells = assay: WST colorometric live-cell assay, NAC chemoprotection against alkylating chemotherapy; type: cell-based; conditions: Homo sapiens; approx. LD90 chemotherapy (melphalan 20 μM, carboplatin 200 μM, cisplatin 20 μM); NAC added immediately after; all three drugs; read-out: NAC concentration for half-maximal protection against cell death
Protocol: Cytotoxicity was assessed in cultured B.5 LX-1 SCLC cells, using the WST colorometric assay for live cells. Cells were treated with approximately LD90 dose of chemotherapy (melphalan=20 μM, carboplatin=200 μM, cisplatin=20 μM). Immediately following chemotherapy, NAC chemoprotectant was added at the indicated concentration. NAC protected against cell death by all three chemotherapeutic drugs, with half-maximal protection found between 0.1 mg/ml NAC and 0.3 mg/ml NAC.

[4] = NAC biodistribution with radiolabelled tracer; type: in vivo, rat
Protocol: as §2

[5] = after a bolus injection; cited from earlier work

Which “effect of BSO on cytotoxicity in carcinoma cells” value [1] does the source give for `CCCCS(=N)(=O)CCC(N)C(=O)O` (stereo not shown) [BSO, buthionine sulfoximine] here?
Its value is “enhanced cytotoxicity”.

And the “cell survival, comparison of combinations (FIGS. 5 and 6)” value [1]?
Its value is “least survival”.

And the “effect of BSO on cytotoxicity of BR96-DOX or doxorubicin” value [2]?
Its value is “did not enhance the cytotoxicity”.

And the “effect of BSO on cytotoxicity of BR96-DOX or doxorubicin in normal gastric cells” value ([3]; NHGC)?
The value was “did not increase toxicity; also recorded: did not enhance the cytotoxicity”.

What about the “bone marrow toxicity of combination chemotherapy” value (bone marrow; BSO pretreatment, intra-carotid carboplatin, melphalan, etoposide phosphate) of the same molecule?
Its value is “enhanced the bone marrow toxicity”.

What about the “reduction of blood and tissue GSH levels” value (GSH) of the same molecule?
The value was 50-65%.

For `CCOC(=O)CNC(=O)[C@H](CS)NC(=O)CC[C@H](N)C(=O)O` [GSH ethyl ester], which “reduction of BR96-DOX cell kill, other chemoprotective agents” value (“reduction … other chemoprotective agents” below) ([3]; NHGC) is on record?
Its value is 15-20%.

And the “percent viable gastric cells, BR96-DOX plus chemoprotectant (FIGS. 3 and 4)” value [3]?
The value was “second highest amount of viable gastric cells”.

For `CC(=O)N[C@@H](CS)C(=O)O` [NAC, N-acetylcysteine], which “effect on BSO-enhanced BR96-DOX cytotoxicity” value [1] is on record?
Its value is “did reverse the enhanced cytotoxicity”.

What about the “effect on response to BR96-DOX” value ([1]; AGS cells not treated with BSO) of the same molecule?
The value was “did not alter the response”.

And the “cell survival, comparison of combinations (FIGS. 5 and 6)” value [1]?
The value was “greatest amount of cells survived”.

What about the EC50 (B.5 LX-1 SCLC cells) of the same molecule?
Its EC50 is 100 to 300 µg/mL (≈ 613 to 1840 µM).

And the “protection against BR96-DOX cytotoxicity in normal gastric cells” value ([3]; NHGC)?
The value was “protected the normal gastric cells; also recorded: at least partially protective; also recorded: protective independent of the presence of BSO”.

What about the “reduction of BR96-DOX cell kill” value ([3]; NHGC, experiment 1) of the same molecule?
Its value is 25%.

What about the “reduction of BR96-DOX cell kill” value ([3]; NHGC, experiment 2) of the same molecule?
Its value is 95%.

What about the “reduction of BR96-DOX cell kill” value ([3]; NHGC, experiment 3) of the same molecule?
The value was 55%.

What about the “protective NAC concentration relative to that required against alkylating chemotherapeutics” value ([3]; NHGC/BR96-DOX vs B.5 LX-1/alkylators) of the same molecule?
The value was 10 fold.

What about the “percent viable gastric cells, BR96-DOX plus chemoprotectant (FIGS. 3 and 4)” value [3] of the same molecule?
Its value is “increased the percentage of viable gastric cells”.

And the “systemic delivery of radiolabelled NAC” value ([4]; aortic infusion)?
The value was “increasing systemic delivery”.

What about the “brain delivery of radiolabelled NAC” value ([4]; aortic infusion (retrograde left external carotid, left internal carotid occluded)) of the same molecule?
Its value is “negligible levels”.

What about the “brain delivery of radiolabelled NAC” value ([4]; intraarterial, right carotid artery) of the same molecule?
Its value is “high delivery to the right cerebral hemisphere”.

What about the granulocytes at nadir (bone marrow; day 6, NAC 1200 mg/m^2 aortic infusion before intra-carotid chemotherapy, no BSO, no NAC: 146±160, p<0.02) of the same molecule?
Its granulocytes at nadir is 785±494.

And the platelets at nadir (bone marrow; day 6, NAC 1200 mg/m^2 aortic infusion before intra-carotid chemotherapy, no BSO, no NAC: 215±126, p<0.02)?
The platelets at nadir was 470±234.

Which “reduction … other chemoprotective agents” value ([3]; NHGC) does the source give for `O=S([O-])([O-])=S.[Na+].[Na+]` [STS, sodium thiosulfate] here?
The value was “no significant effect”.

And the plasma half life [5]?
The plasma half life was “about 17 minutes”.

For `CSCC[C@@H](N)C(=O)O` [d-Methionine, D-methionine], which “reduction … other chemoprotective agents” value ([3]; NHGC) is on record?
The value was “no significant effect”.

Which EC50 ([1]; read-out: half maximal cytotoxic dose (EC50), AGS cells, absence of BSO) does the source give for `COc1cccc2c1C(=O)c1c(O)c3c(c(O)c1C2=O)C[C@@](O)(C(=O)CO)C[C@@H]3O[C@H]1C[C@H](N)[C@H](O)[C@H](C)O1` [doxorubicin] here?
The EC50 was 0.1 µg/mL (≈ 0.184 µM).

And the EC50 ([1]; read-out: half maximal cytotoxic dose (EC50), AGS cells, pretreatment with BSO 100 μM)?
The EC50 was about 0.05 µg/mL (≈ 0.092 µM).
